{"source": "paper PMC8562569", "about": "(Nature cancer, 2021)", "target": "PIKfyve (Homo sapiens, UniProt Q9Y2I7)", "sequence (Q9Y2I7 2-2098)": "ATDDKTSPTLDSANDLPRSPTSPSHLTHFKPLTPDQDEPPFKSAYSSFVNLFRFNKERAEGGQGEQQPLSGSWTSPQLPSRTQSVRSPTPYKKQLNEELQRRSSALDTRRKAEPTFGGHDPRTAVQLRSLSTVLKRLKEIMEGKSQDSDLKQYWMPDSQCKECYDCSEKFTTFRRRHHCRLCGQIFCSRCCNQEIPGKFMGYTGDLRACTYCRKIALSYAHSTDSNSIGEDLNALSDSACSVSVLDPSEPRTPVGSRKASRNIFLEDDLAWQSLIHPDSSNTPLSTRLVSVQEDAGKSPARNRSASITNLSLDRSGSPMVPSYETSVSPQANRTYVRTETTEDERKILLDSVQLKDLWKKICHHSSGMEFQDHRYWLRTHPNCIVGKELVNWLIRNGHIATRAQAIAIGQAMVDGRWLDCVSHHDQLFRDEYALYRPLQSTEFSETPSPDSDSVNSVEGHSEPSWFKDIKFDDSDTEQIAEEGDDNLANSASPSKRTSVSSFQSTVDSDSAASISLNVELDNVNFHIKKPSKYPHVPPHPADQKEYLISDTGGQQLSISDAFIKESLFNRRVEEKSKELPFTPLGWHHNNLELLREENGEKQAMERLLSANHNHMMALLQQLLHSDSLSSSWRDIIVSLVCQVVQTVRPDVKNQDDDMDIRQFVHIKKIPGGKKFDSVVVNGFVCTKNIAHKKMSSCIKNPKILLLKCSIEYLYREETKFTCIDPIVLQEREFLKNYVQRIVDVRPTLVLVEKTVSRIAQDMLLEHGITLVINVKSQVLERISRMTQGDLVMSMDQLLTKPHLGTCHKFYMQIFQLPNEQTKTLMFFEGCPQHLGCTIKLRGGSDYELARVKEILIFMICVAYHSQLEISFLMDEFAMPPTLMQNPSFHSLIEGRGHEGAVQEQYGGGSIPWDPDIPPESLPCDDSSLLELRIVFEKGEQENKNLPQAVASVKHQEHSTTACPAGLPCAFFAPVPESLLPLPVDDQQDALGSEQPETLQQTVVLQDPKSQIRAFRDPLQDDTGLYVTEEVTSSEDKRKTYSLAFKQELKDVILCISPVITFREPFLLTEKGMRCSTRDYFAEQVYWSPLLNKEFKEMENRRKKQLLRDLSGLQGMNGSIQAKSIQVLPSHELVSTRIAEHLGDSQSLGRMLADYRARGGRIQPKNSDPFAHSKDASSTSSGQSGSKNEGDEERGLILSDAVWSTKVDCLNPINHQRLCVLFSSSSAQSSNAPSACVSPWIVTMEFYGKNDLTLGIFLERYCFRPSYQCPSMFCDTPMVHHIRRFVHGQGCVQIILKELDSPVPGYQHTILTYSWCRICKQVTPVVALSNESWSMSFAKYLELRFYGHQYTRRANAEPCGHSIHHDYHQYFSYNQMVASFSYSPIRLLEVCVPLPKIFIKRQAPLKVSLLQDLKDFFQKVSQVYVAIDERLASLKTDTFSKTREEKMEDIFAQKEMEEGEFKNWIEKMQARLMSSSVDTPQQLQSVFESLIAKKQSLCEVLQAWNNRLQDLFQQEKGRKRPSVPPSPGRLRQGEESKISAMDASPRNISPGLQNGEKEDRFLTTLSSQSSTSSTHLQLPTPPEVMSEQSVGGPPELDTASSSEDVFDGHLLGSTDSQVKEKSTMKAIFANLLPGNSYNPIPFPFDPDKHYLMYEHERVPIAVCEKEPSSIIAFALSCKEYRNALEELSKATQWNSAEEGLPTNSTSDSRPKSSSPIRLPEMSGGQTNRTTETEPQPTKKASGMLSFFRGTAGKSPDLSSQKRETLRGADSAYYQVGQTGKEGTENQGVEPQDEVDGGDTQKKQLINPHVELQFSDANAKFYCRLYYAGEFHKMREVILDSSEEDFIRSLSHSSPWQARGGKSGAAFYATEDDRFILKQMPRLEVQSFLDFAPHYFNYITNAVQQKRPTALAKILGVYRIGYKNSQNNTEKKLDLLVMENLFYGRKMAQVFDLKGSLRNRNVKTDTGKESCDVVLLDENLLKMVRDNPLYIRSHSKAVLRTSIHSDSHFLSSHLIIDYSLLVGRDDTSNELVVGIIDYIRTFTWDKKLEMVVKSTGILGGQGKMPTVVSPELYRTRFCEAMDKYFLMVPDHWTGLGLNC", "test": "cellular thermal shift assay in VCaP cells, […], […] h", "type": "cell-based", "data": [{"smiles": "Cc1cccc(/C=N/Nc2cc(N3CCOCC3)nc(OCCc3ccccn3)n2)c1", "note": "[apilimod]", "values": [{"measurement": "cellular thermal shift assay in VCaP cells, 1 μM, 2 h", "result": "cellular thermal shift assay in VCaP cells, with the known PIKfyve inhibitor apilimod serving as a positive control"}]}]}
